{"source": "patent US8629276B2", "about": "“Inhibitors of human immunodeficiency virus replication” (priority 2012, dated 2014)", "test_system": "recombinant NL-Rluc virus", "experiment": "Inhibition of HIV replication (NL-RLuc virus, luciferase readout in MT-2 cells)", "format": "cell-based", "conditions": "Human immunodeficiency virus 1, MT2, 120 h", "data": [{"smiles": "Cc1nc2c(c(-c3cc(F)c4c(c3C)CCCO4)c1[C@H](OC(C)(C)C)C(=O)O)CN(CCCc1ccccc1)CC2", "note": "(atropisomer, axis not shown) [Example 42, (2S)-2-(tert-Butoxy)-2-((R)-4-(8-fluoro-5-methylchroman-6-yl)-2-methyl-6-(3-phenylpropyl)-5,6,7,8-tetrahydro-1,6-naphthyridin-3-yl)acetic acid]", "values": [{"measurement": "EC50", "value": 0.007, "unit": "µM"}]}, {"smiles": "Cc1nc2c(c(-c3cc(F)c4c(c3C)CCCO4)c1[C@H](OC(C)(C)C)C(=O)O)CN(CCCc1ccc(Cl)cc1)CC2", "note": "(atropisomer, axis not shown) [Example 44, (2S)-2-(tert-Butoxy)-2-(6-(3-(4-chlorophenyl)propyl)-(R)-4-(8-fluoro-5-methylchroman-6-yl)-2-methyl-5,6,7,8-tetrahydro-1,6-naphthyridin-3-yl)acetic acid]", "values": [{"measurement": "EC50", "value": 0.003, "unit": "µM"}]}, {"smiles": "Cc1nc2c(c(-c3cc(F)c4c(c3C)CCCO4)c1[C@H](OC(C)(C)C)C(=O)O)CN(CCCc1ccc(F)cc1)CC2", "note": "(atropisomer, axis not shown) [Example 45, (S)-2-(tert-Butoxy)-2-((R)-4-(8-fluoro-5-methylchroman-6-yl)-6-(3-(4-fluorophenyl)propyl)-2-methyl-5,6,7,8-tetrahydro-1,6-naphthyridin-3-yl)acetic acid]", "values": [{"measurement": "EC50", "value": 0.004, "unit": "µM"}]}, {"smiles": "Cc1cccc(CCCN2CCc3nc(C)c([C@H](OC(C)(C)C)C(=O)O)c(-c4cc(F)c5c(c4C)CCCO5)c3C2)c1", "note": "(atropisomer, axis not shown) [Example 47, (2S)-2-(tert-Butoxy)-2-((R)-4-(8-fluoro-5-methylchroman-6-yl)-2-methyl-6-(3-(m-tolyl)propyl)-5,6,7,8-tetrahydro-1,6-naphthyridin-3-yl)acetic acid]", "values": [{"measurement": "EC50", "value": 0.002, "unit": "µM"}]}, {"smiles": "Cc1ccccc1CCCN1CCc2nc(C)c([C@H](OC(C)(C)C)C(=O)O)c(-c3cc(F)c4c(c3C)CCCO4)c2C1", "note": "(atropisomer, axis not shown) [Example 48, (2S)-2-(tert-Butoxy)-2-((R)-4-(8-fluoro-5-methylchroman-6-yl)-2-methyl-6-(3-(o-tolyl)propyl)-5,6,7,8-tetrahydro-1,6-naphthyridin-3-yl)acetic acid]", "values": [{"measurement": "EC50", "value": 0.002, "unit": "µM"}]}, {"smiles": "Cc1nc2c(c(-c3cc(F)c4c(c3C)CCCO4)c1[C@H](OC(C)(C)C)C(=O)O)CN(CCCc1cccc(F)c1)CC2", "note": "(atropisomer, axis not shown) [Example 49, (S)-2-(tert-Butoxy)-2-((R)-4-(8-fluoro-5-methylchroman-6-yl)-6-(3-(3-fluorophenyl)propyl)-2-methyl-5,6,7,8-tetrahydro-1,6-naphthyridin-3-yl)acetic acid]", "values": [{"measurement": "EC50", "value": 0.004, "unit": "µM"}]}, {"smiles": "Cc1ccc(CCCN2CCc3nc(C)c([C@H](OC(C)(C)C)C(=O)O)c(-c4cc(F)c5c(c4C)CCCO5)c3C2)cc1F", "note": "(atropisomer, axis not shown) [Example 51]", "values": [{"measurement": "EC50", "value": 0.001, "unit": "µM"}]}, {"smiles": "Cc1cc(CCCN2CCc3nc(C)c([C@H](OC(C)(C)C)C(=O)O)c(-c4cc(F)c5c(c4C)CCCO5)c3C2)ccc1F", "note": "(atropisomer, axis not shown) [Example 52, (2S)-2-(tert-Butoxy)-2-(6-(3-(4-fluoro-3-methylphenyl)propyl)-(R)-4-(8-fluoro-5-methylchroman-6-yl)-2-methyl-5,6,7,8-tetrahydro-1,6-naphthyridin-3-yl)acetic acid]", "values": [{"measurement": "EC50", "value": 0.002, "unit": "µM"}]}, {"smiles": "Cc1nc2c(c(-c3cc(F)c4c(c3C)CCCO4)c1[C@H](OC(C)(C)C)C(=O)O)CN(CCCc1cccc(C(F)(F)F)c1)CC2", "note": "(atropisomer, axis not shown) [Example 53]", "values": [{"measurement": "EC50", "value": 0.002, "unit": "µM"}]}, {"smiles": "Cc1nc2c(c(-c3cc(F)c4c(c3C)CCCO4)c1[C@H](OC(C)(C)C)C(=O)O)CN(CCCc1ccccc1F)CC2", "note": "(atropisomer, axis not shown) [Example 55, (2S)-2-(tert-Butoxy)-2-((R)-4-(8-fluoro-5-methylchroman-6-yl)-6-(3-(2-fluorophenyl)propyl)-2-methyl-5,6,7,8-tetrahydro-1,6-naphthyridin-3-yl)acetic acid]", "values": [{"measurement": "EC50", "value": 0.001, "unit": "µM"}]}, {"smiles": "Cc1ccc(S(=O)(=O)N[C@@H](Cc2ccccc2)C(=O)N2Cc3c(nc(C(C)C)c(C(OC(C)(C)C)C(=O)O)c3-c3ccc(F)cc3)C(C)(C)C2)cc1", "note": "(stereo in doubt) [Example 10, 2-tert-Butoxy-2-(4-(4-fluorophenyl)-2-isopropyl-8,8-dimethyl-6-(2-(4-methylphenylsulfonamido)-3-phenylpropanoyl)-5,6,7,8-tetrahydro-1,6-naphthyridin-3-yl)acetic acid]", "values": [{"measurement": "EC50", "value": 0.777, "unit": "µM"}]}, {"smiles": "Cc1ccc(-c2c3c(nc(C)c2C(OC(C)(C)C)C(=O)O)CCN(C(=O)[C@H](Cc2ccccc2)NS(=O)(=O)c2ccc(C)cc2)C3)cc1", "note": "(stereo in doubt) [Example 32, 2-(tert-Butoxy)-2-(2-methyl-6-(2-(4-methylphenylsulfonamido)-3-phenylpropanoyl)-4-(p-tolyl)-5,6,7,8-tetrahydro-1,6-naphthyridin-3-yl)acetic acid]", "values": [{"measurement": "EC50", "value": 2.3, "unit": "µM"}]}, {"smiles": "CC(=O)N1Cc2c(nc(C(C)C)c(C(OC(C)(C)C)C(=O)O)c2-c2ccc(F)cc2)C(C)(C)C1", "note": "(stereo not drawn) [Example 2, 2-(6-Acetyl-4-(4-fluorophenyl)-2-isopropyl-8,8-dimethyl-5,6,7,8-tetrahydro-1,6-naphthyridin-3-yl)-2-tert-butoxyacetic acid]", "values": [{"measurement": "EC50", "value": 10, "unit": "µM"}]}, {"smiles": "CC(C)c1nc2c(c(-c3ccc(F)cc3)c1C(OC(C)(C)C)C(=O)O)CN(C(=O)c1ccccc1)CC2(C)C", "note": "(stereo not drawn) [Example 3, 2-(6-Benzoyl-4-(4-fluorophenyl)-2-isopropyl-8,8-dimethyl-5,6,7,8-tetrahydro-1,6-naphthyridin-3-yl)-2-tert-butoxyacetic acid]", "values": [{"measurement": "EC50", "value": 6.79, "unit": "µM"}]}, {"smiles": "CC(C)c1nc2c(c(-c3ccc(F)cc3)c1C(OC(C)(C)C)C(=O)O)CN(C(=O)c1ccc(F)cc1)CC2(C)C", "note": "(stereo not drawn) [Example 4, 2-tert-Butoxy-2-(6-(4-fluorobenzoyl)-4-(4-fluorophenyl)-2-isopropyl-8,8-dimethyl-5,6,7,8-tetrahydro-1,6-naphthyridin-3-yl)acetic acid]", "values": [{"measurement": "EC50", "value": 3.16, "unit": "µM"}]}, {"smiles": "CC(C)c1nc2c(c(-c3ccc(F)cc3)c1C(OC(C)(C)C)C(=O)O)CN(C(=O)Cc1ccc(OCc3ccccc3)cc1)CC2(C)C", "note": "(stereo not drawn) [Example 5, 2-(6-(2-(4-(Benzyloxy)phenyl)acetyl)-4-(4-fluorophenyl)-2-isopropyl-8,8-dimethyl-5,6,7,8-tetrahydro-1,6-naphthyridin-3-yl)-2-tert-butoxyacetic acid]", "values": [{"measurement": "EC50", "value": 5.13, "unit": "µM"}]}, {"smiles": "CC(C)c1nc2c(c(-c3ccc(F)cc3)c1C(OC(C)(C)C)C(=O)O)CN(C(=O)Cc1ccc(F)cc1)CC2(C)C", "note": "(stereo not drawn) [Example 6, 2-tert-Butoxy-2-(4-(4-fluorophenyl)-6-(2-(4-fluorophenyl)acetyl)-2-isopropyl-8,8-dimethyl-5,6,7,8-tetrahydro-1,6-naphthyridin-3-yl)acetic acid]", "values": [{"measurement": "EC50", "value": 0.185, "unit": "µM"}]}, {"smiles": "CC(C)c1nc2c(c(-c3ccc(F)cc3)c1C(OC(C)(C)C)C(=O)O)CN(C(=O)Cc1ccccc1)CC2(C)C", "note": "(stereo not drawn) [Example 7, 2-tert-Butoxy-2-(4-(4-fluorophenyl)-2-isopropyl-8,8-dimethyl-6-(2-phenylacetyl)-5,6,7,8-tetrahydro-1,6-naphthyridin-3-yl)acetic acid]", "values": [{"measurement": "EC50", "value": 7.54, "unit": "µM"}]}, {"smiles": "CC(C)c1nc2c(c(-c3ccc(F)cc3)c1C(OC(C)(C)C)C(=O)O)CN(C(=O)[C@@H]1C[C@H]1c1ccccc1)CC2(C)C", "note": "(stereo partly drawn) [Example 8, 2-tert-Butoxy-2-(4-(4-fluorophenyl)-2-isopropyl-8,8-dimethyl-6-((1R,2R)-2-phenylcyclopropanecarbonyl)-5,6,7,8-tetrahydro-1,6-naphthyridin-3-yl)acetic acid]", "values": [{"measurement": "EC50", "value": 6.72, "unit": "µM"}]}, {"smiles": "CC(C)c1nc2c(c(-c3ccc(F)cc3)c1C(OC(C)(C)C)C(=O)O)CN(C(=O)CCCc1ccccc1)CC2(C)C", "note": "(stereo not drawn) [Example 9, 2-tert-Butoxy-2-(4-(4-fluorophenyl)-2-isopropyl-8,8-dimethyl-6-(4-phenylbutanoyl)-5,6,7,8-tetrahydro-1,6-naphthyridin-3-yl)acetic acid]", "values": [{"measurement": "EC50", "value": 6.71, "unit": "µM"}]}, {"smiles": "CC(C)c1nc2c(c(-c3ccc(F)cc3)c1C(OC(C)(C)C)C(=O)O)CN(C(=O)C(=O)c1c[nH]c3ccccc13)CC2(C)C", "note": "(stereo not drawn) [Example 11, 2-(6-(2-(1H-Indol-3-yl)-2-oxoacetyl)-4-(4-fluorophenyl)-2-isopropyl-8,8-dimethyl-5,6,7,8-tetrahydro-1,6-naphthyridin-3-yl)-2-tert-butoxyacetic acid]", "values": [{"measurement": "EC50", "value": 4.12, "unit": "µM"}]}, {"smiles": "CC(C)c1nc2c(c(-c3ccc(F)cc3)c1C(OC(C)(C)C)C(=O)O)CN(C(=O)CCc1ccccc1)CC2(C)C", "note": "(stereo not drawn) [Example 12, 2-tert-Butoxy-2-(4-(4-fluorophenyl)-2-isopropyl-8,8-dimethyl-6-(3-phenylpropanoyl)-5,6,7,8-tetrahydro-1,6-naphthyridin-3-yl)acetic acid]", "values": [{"measurement": "EC50", "value": 7.13, "unit": "µM"}]}, {"smiles": "CC(C)c1nc2c(c(-c3ccc(F)cc3)c1C(OC(C)(C)C)C(=O)O)CN(C(=O)c1ccc(-c3ccccc3)cc1)CC2(C)C", "note": "(stereo not drawn) [Example 13, 2-(6-(Biphenylcarbonyl)-4-(4-fluorophenyl)-2-isopropyl-8,8-dimethyl-5,6,7,8-tetrahydro-1,6-naphthyridin-3-yl)-2-tert-butoxyacetic acid]", "values": [{"measurement": "EC50", "value": 2.01, "unit": "µM"}]}, {"smiles": "Cc1onc(-c2ccccc2)c1C(=O)N1Cc2c(nc(C(C)C)c(C(OC(C)(C)C)C(=O)O)c2-c2ccc(F)cc2)C(C)(C)C1", "note": "(stereo not drawn) [Example 14, 2-tert-Butoxy-2-(4-(4-fluorophenyl)-2-isopropyl-8,8-dimethyl-6-(5-methyl-3-phenylisoxazole-4-carbonyl)-5,6,7,8-tetrahydro-1,6-naphthyridin-3-yl)acetic acid]", "values": [{"measurement": "EC50", "value": 10.2, "unit": "µM"}]}, {"smiles": "CC(C)c1nc2c(c(-c3ccc(F)cc3)c1C(OC(C)(C)C)C(=O)O)CN(c1ccccc1)CC2(C)C", "note": "(stereo not drawn) [Example 15, 2-tert-Butoxy-2-(4-(4-fluorophenyl)-2-isopropyl-8,8-dimethyl-6-phenyl-5,6,7,8-tetrahydro-1,6-naphthyridin-3-yl)acetic acid]", "values": [{"measurement": "EC50", "value": 2.09, "unit": "µM"}]}, {"smiles": "CC(C)c1nc2c(c(-c3ccc(F)cc3)c1C(OC(C)(C)C)C(=O)O)CN(Cc1ccc(F)cc1)CC2(C)C", "note": "(stereo not drawn) [Example 16, 2-tert-Butoxy-2-(6-(4-fluorobenzyl)-4-(4-fluorophenyl)-2-isopropyl-8,8-dimethyl-5,6,7,8-tetrahydro-1,6-naphthyridin-3-yl)acetic acid]", "values": [{"measurement": "EC50", "value": 6.92, "unit": "µM"}]}, {"smiles": "CC(C)c1nc2c(c(-c3ccc(F)cc3)c1C(OC(C)(C)C)C(=O)O)CN(c1cccc(-c3ccccc3)c1)CC2(C)C", "note": "(stereo not drawn) [Example 17, 2-(6-([1,1′-Biphenyl]-3-yl)-4-(4-fluorophenyl)-2-isopropyl-8,8-dimethyl-5,6,7,8-tetrahydro-1,6-naphthyridin-3-yl)-2-(tert-butoxy)acetic acid]", "values": [{"measurement": "EC50", "value": 4.6, "unit": "µM"}]}]}
